One assay addresses T1, HER-2 (Homo sapiens, UniProt P04626).
T1 construct: His6 with thrombin site (N); purchased Proqinase (Freiburg, Germany)
Kind of assay: HER-2 Kinase Assay. Format: biochemical. Conditions: for IC50: value in parentheses; for inhibition at 1 µM: test concentration of 1 μM. As for the experimental part:
The HER-2 kinase used was purified at Proqinase (Freiburg, Germany) from a construct that consisted of a fusion of GST (Glutathione-S-Transferase), HIS6-Thrombin and the nucleotides encoding amino acids 679 to 1255 of HER-2 (Accession Number M11730).
A mixture of a 10× kinase reaction buffer (600 mM Hepes at pH 7.5, 30 mM Magnesium Chloride, 0.03 mM Sodium Vanadate and 500 μg/mL PEG 20,000), DTT (1.2 mM final from a 10 mM stock), APT (1 μM from a 10 mM stock), biotinylated polyGluTyr (1.5 ng/μL final from stock of 1 μg/μL) prepared by Upstate Biotechnologies, Lake Placid, N.Y.), Manganese Chloride (3 mM final from a 1 M stock), γ-^33P-ATP (10 μCl/μL stock) and water (70 μL/well) was added to each well of a Streptavidin Flashplate (Cat. # SMP103, NEN, Boston, Mass.).
Test compound stock (1 μL) was added to the appropriate wells. Diluted GSTHER2 kinase (6.7 ng/μL diluted into 50 mM Tris-HCl at pH 8.0 and 0.1% bovine serum albumin) (30 μL) was added (total volume of 200 ng/well) to initiate the reactions.
The reaction plates were incubated at 30° C. for 1 hr. The reaction was terminated by aspirating the reaction mixture from the plate wells and washing the wells three times with a 1×PBS stop buffer (300 μL) and 100 mM EDTA. After the final wash, the same stop buffer (200 μL) was again added to the wells. The plates were then sealed and read on the TopCount scintillation counter.
The Her-2 inhibition values were derived according to the procedure described in Example 164 and are shown as percent in Table 4 at a test concentration of 1 μM. For those compounds with an IC50, the IC50 value in μM is shown in parentheses. For compounds with multiple test values, each value represents a separate assay result.

The next assay addresses T2, EGFR (Homo sapiens, UniProt P00533).
T2 construct: The intracellular portion of EGFR started at nucleotide 2189 (corresponding to amino acid 667) and ended at the termination codon; made in house; host or cells: Sf9 insect cells (baculovirus)
Kind of assay: EGFR Kinase Assay. Type of assay: biochemical. Conditions: for IC50: GST-EGFR, ATP 5 μM; for inhibition at 2 µM: test concentration of 2 μM, compounds without an IC50, read-out: EGFR inhibition in percent. The source says:
The EGFR kinase used was a fusion of Glutathione-S-Transferase (GST) and a PCR amplified intracellular portion of EGFR (Accession Number NM_005228). The intracellular portion of EGFR started at nucleotide 2189 (corresponding to amino acid 667) and ended at the termination codon. The portion was PCR amplified with primers that added the lambda attB sequences to each end, recombined into an entry vector, then into a GST destination vector (as described in Gateway Technologies Manual by Invitrogen Corporation, Carlsbad, Calif.).
The destination vector was recombined in the DH10BAC strain of bacteria to produce a bacmid. The bacmid was transfected into Sf 9 cells and the supernatant containing the baculovirus was collected. The GSTEGFR protein was purified using large cultures of Sf 9 cells infected with stock virus. After an appropriate period of time, the cells were collected and lysed. The GSTEGFR was then purified from the lysate on Glutathione-Sepharose columns (as described by Amersham Biosciences, Buckinghamshire, United Kingdom).
The EGFR substrate was prepared by biotinylating polyGluTyr (128 mg) (Sigma, St. Louis, Mo.) in a 1×PBS buffer incubated together with a 12-fold molar excess of Sulfo-NHS-LC-Biotin on ice for at least 2 hrs. The free biotin was separated from the biotinylated polyGluTyr on a gel filtration column.
A mixture of a 10× kinase buffer (500 mM Tris at pH 8.0, 100 mM Magnesium Chloride and 1 mM Sodium Vanadate), DTT (1 mM final from 500 mM stock), ATP (5 μM final from 10 mM stock), biotinylated polyGluTyr (10 μg/μL stock), γ-^33P ATP (10 μCl/μL stock) and water was added to each well (for a total of 90 μL/well) of a Streptavidin Flashplate (Perkin Elmer, Wellesley, Mass.).
Test compound in 100% DMSO (2 μL) was added to the appropriate wells. Diluted GSTEGFR (1:300 dilution in 50 mM Tris at pH 8.0 and 0.1% bovine serum albumin) (10 μL) was added to the wells to initiate the reactions.
The plates were incubated at 30° C. for 1 hr with shaking. The reacted contents were removed and the plates were sequentially washed three times with a 1×PBS stop buffer (300 μL without Magnesium and Calcium) and 100 mM EDTA. After the final wash, the same stop buffer (200 μL) was added to the wells. The plates were then sealed and read on the TopCount scintillation counter.
Test compounds were assayed in triplicate at 16 concentrations at half-log dilutions starting at 200 uM. A maximum and minimum signal for the assay was determined on each plate. The percent inhibition of a test compound was calculated according to the formula: […]
For a series of test concentrations, the IC50 was derived by graphing percent inhibition against the log of the concentrations tested for a given compound. For those compounds without an IC50, the inhibition values in percent are shown at a test concentration of 2 μM. For compounds with multiple values, each value represents a separate assay result.

As usually defined, the IC50 is the midpoint of a concentration-inhibition curve. One may read the inhibition as the drop in the measured response relative to a control, in per cent.

Consider `COc1cc(NC(=O)c2sc3ncnc4c3c2NC(=O)N4c2ccc(OCc3ccccn3)c(Cl)c2)ccc1OCCN1CCOCC1` [Cpd 86, 5-[3-chloro-4-(pyridin-2-ylmethoxy)-phenyl]-4-oxo-4,5-dihydro-3H-1-thia-3,5,6,8-tetraaza-acenaphthylene-2-carboxylic acid [3-methoxy-4-(2-morpholin-4-yl-ethoxy)-phenyl]-amide], for which the IC50 at HER-2 was found to be 350 nM; at EGFR, 83 nM.
For “4-oxo-5-(4-phenoxy-phenyl)-4,5-dihydro-3H-1-thia-3,5,6,8-tetraaza-acenaphthylene-2-carboxylic acid (4-morpholin-4-ylmethyl-3-trifluoromethoxy-phenyl)-amide [Cpd 240]”, in that order: 227 nM and 31 nM.
The like results for `O=C(Nc1ccc(CN2CCCCC2)cc1)c1sc2ncnc3c2c1NC(=O)N3c1ccc(Br)cc1` [Cpd 195, 5-(4-bromo-phenyl)-4-oxo-4,5-dihydro-3H-1-thia-3,5,6,8-tetraaza-acenaphthylene-2-carboxylic acid (4-piperidin-1-ylmethyl-phenyl)-amide] were, in that order, 94 nM and 97 nM.
`O=C(NCCc1ccccn1)c1sc2ncnc3c2c1NC(=O)N3c1ccc(Oc2ccccc2)cc1` [Cpd 217, 4-oxo-5-(4-phenoxy-phenyl)-4,5-dihydro-3H-1-thia-3,5,6,8-tetraaza-acenaphthylene-2-carboxylic acid (2-pyridin-2-yl-ethyl)-amide]: the IC50 on HER-2 is over 100000 nM; at EGFR it was 225 nM.
For `CN(C)CCCNC(=O)c1sc2ncnc3c2c1NC(=O)N3c1ccc(Sc2ccccc2)cc1` [Cpd 212, 4-oxo-5-(4-phenylsulfanyl-phenyl)-4,5-dihydro-3H-1-thia-3,5,6,8-tetraaza-acenaphthylene-2-carboxylic acid (3-dimethylamino-propyl)-amide], in that order: 168 nM and 36 nM.
The like results for `Cc1ccc(N2C(=O)Nc3c(C(=O)Nc4ccc(CN5CCCCC5)cc4)sc4ncnc2c34)cc1Br` [Cpd 111, 5-(3-bromo-4-methyl-phenyl)-4-oxo-4,5-dihydro-3H-1-thia-3,5,6,8-tetraaza-acenaphthylene-2-carboxylic acid (4-piperidin-1-ylmethyl-phenyl)-amide] were, in that order, 325 nM and 29 nM.
As for `COc1cc(NC(=O)c2sc3ncnc4c3c2NC(=O)N4c2cc(Cl)ccc2OC)ccc1OCCN1CCCCC1` [Cpd 74, 5-(5-chloro-2-methoxy-phenyl)-4-oxo-4,5-dihydro-3H-1-thia-3,5,6,8-tetraaza-acenaphthylene-2-carboxylic acid [3-methoxy-4-(2-piperidin-1-yl-ethoxy)-phenyl]-amide], the inhibition at 1 µM at HER-2 worked out at 4%. Further, the inhibition at 2 µM at EGFR turned out to be 56%.
Consider `CN1CCC(NC(=O)c2sc3ncnc4c3c2NC(=O)N4c2ccc3nc(Cc4cccc(F)c4)[nH]c3c2)CC1` [Cpd 194, 5-[2-(3-fluoro-benzyl)-3H-benzoimidazol-5-yl]-4-oxo-4,5-dihydro-3H-1-thia-3,5,6,8-tetraaza-acenaphthylene-2-carboxylic acid (1-methyl-piperidin-4-yl)-amide], for which, on HER-2, the IC50 was determined as 5770 nM. Moreover, at EGFR, the inhibition at 2 µM was found to be 31%.
Take `COc1ccc(C(=O)c2sc3ncnc4c3c2NC(=O)N4c2ccc(Oc3ccccc3)cc2)cc1OC` [Cpd 202]: the IC50 at HER-2 was over 100000 nM. At EGFR, the inhibition at 2 µM came to 31%.
With `COc1ccc(N2C(=O)Nc3c(C(=O)Nc4ccc(OC)c(OC)c4)sc4ncnc2c34)c(F)c1` [Cpd 69, 5-(2-fluoro-4-methoxy-phenyl)-4-oxo-4,5-dihydro-3H-1-thia-3,5,6,8-tetraaza-acenaphthylene-2-carboxylic acid (3,4-dimethoxy-phenyl)-amide], the inhibition at 1 µM against HER-2 is -3%. In addition, the half-inhibitory concentration (IC50) against EGFR came out at 970 nM.
For `COc1cc(NC(=O)c2sc3ncnc4c3c2NC(=O)N4c2cccc(Oc3ccccc3)c2)ccc1CN1CCOCC1` [Cpd 200, 4-oxo-5-(3-phenoxy-phenyl)-4,5-dihydro-3H-1-thia-3,5,6,8-tetraaza-acenaphthylene-2-carboxylic acid (3-methoxy-4-morpholin-4-ylmethyl-phenyl)-amide], the IC50 stood at 130 nM at HER-2 and 89 nM on EGFR.
As to `COc1cc(NC(=O)c2sc3ncnc4c3c2NC(=O)N4c2ccc(OCc3ccco3)c(Cl)c2)ccc1CN1CCCCC1` [Cpd 243, 5-[3-chloro-4-(furan-2-ylmethoxy)-phenyl]-4-oxo-4,5-dihydro-3H-1-thia-3,5,6,8-tetraaza-acenaphthylene-2-carboxylic acid (3-methoxy-4-piperidin-1-ylmethyl-phenyl)-amide], the half-inhibitory concentration (IC50) at HER-2 was 83 nM; at EGFR it was 16 nM.
The like results for `O=C(Nc1ccc(CN2CCOCC2)cc1)c1sc2ncnc3c2c1NC(=O)N3c1ccc(OCc2cccs2)c(Cl)c1` [Cpd 226, 5-[3-chloro-4-(thiophen-2-ylmethoxy)-phenyl]-4-oxo-4,5-dihydro-3H-1-thia-3,5,6,8-tetraaza-acenaphthylene-2-carboxylic acid (4-morpholin-4-ylmethyl-phenyl)-amide] were, in that order, 27 nM and 33 nM.
For `O=C(Nc1ccc(CN2CCCCC2)cc1)c1sc2ncnc3c2c1NC(=O)N3c1ccc(OCc2cccs2)c(Cl)c1` [Cpd 227, 5-[3-chloro-4-(thiophen-2-ylmethoxy)-phenyl]-4-oxo-4,5-dihydro-3H-1-thia-3,5,6,8-tetraaza-acenaphthylene-2-carboxylic acid (4-piperidin-1-ylmethyl-phenyl)-amide], in that order: 33 nM and 19 nM.
The like results for `O=C(Nc1ccc(CN2CCOCC2)c(F)c1)c1sc2ncnc3c2c1NC(=O)N3c1ccc(Oc2ccccc2)cc1` [Cpd 203, 4-oxo-5-(4-phenoxy-phenyl)-4,5-dihydro-3H-1-thia-3,5,6,8-tetraaza-acenaphthylene-2-carboxylic acid (3-fluoro-4-morpholin-4-ylmethyl-phenyl)-amide] were, in that order, 60 nM and 35 nM.
Take `O=C(Nc1ccc(CN2CCCCC2)cc1)c1sc2ncnc3c2c1NC(=O)N3c1ccc2nc(Cc3cccc(F)c3)[nH]c2c1` [Cpd 192, 5-[2-(3-fluoro-benzyl)-3H-benzoimidazol-5-yl]-4-oxo-4,5-dihydro-3H-1-thia-3,5,6,8-tetraaza-acenaphthylene-2-carboxylic acid (4-piperidin-1-ylmethyl-phenyl)-amide]: the IC50 is over 1000 nM on HER-2 and 410 nM against EGFR.

For the origin of these results see US7579356B2, “Thia-tetraazaacenaphthylene kinase inhibitors” (Janssen Pharmaceutica NV, priority 2005, dated 2009).
